Measured values: ChEMBL document CHEMBL1157120, “The identification of indacaterol as an ultralong-acting inhaled beta2-adrenoceptor agonist” (J Med Chem, 2010)

How the values were obtained:
[1] = biological target: Albumin (Homo sapiens, UniProt P02768); test: Binding affinity to human serum albumin by UV/HPLC analysis; type: ADME; details: isolated protein
[2] = pH 7.4
Description: Chromatographic hydrophobicity index at 2 mg/ml at pH 7.4 by rapid gradient HPLC analysis

[3] = biological target: Beta-2 adrenergic receptor (Cavia porcellus, UniProt Q8K4Z4)
Description: Agonist activity at beta2 adrenergic receptor in guinea pig tracheal strip assessed as inhibition of electrically-induced bronchocontractile response after 30 mins

[4] = biological target: T1, Beta-2 adrenergic receptor (Homo sapiens, UniProt P07550)
Description: Agonist activity at human beta2 adrenergic receptor assessed as increase in cAMP level by whole cell assay

[5] = biological target: T1, Beta-2 adrenergic receptor; test: biochemical
Description: Displacement of [125I]cyanopindolol from human recombinant beta2 adrenergic receptor expressed in CHO cells by filtration assay

[6] = species: Cavia porcellus; test: Inhibition of serotonin-induced bronchoconstriction in guinea pig assessed as intrinsic duration of bronchodilatory activity at ED80
[7] = Intrinsic clearance in rat liver microsomes assessed per mg of protein at 1 uM after 10 to 30 mins by LC/MS analysis in presence of UDP-glucuronic acid; type: ADME, Microsome
[8] = Intrinsic clearance in rat liver microsomes assessed per mg of protein at 1 uM after 10 to 30 mins by LC/MS analysis in presence of NADPH; type: ADME, Microsome
[9] = Plasma protein binding in human at 1 to 2000 ng/mL after 3 hrs by liquid scintillation counting; type: ADME, cell-free; details: read-out: PPB (converted)
[10] = Fraction unbound in human plasma; type: ADME, cell-free

Sequence of Beta-2 adrenergic receptor (Cavia porcellus, UniProt Q8K4Z4) (Q8K4Z4 whole entry): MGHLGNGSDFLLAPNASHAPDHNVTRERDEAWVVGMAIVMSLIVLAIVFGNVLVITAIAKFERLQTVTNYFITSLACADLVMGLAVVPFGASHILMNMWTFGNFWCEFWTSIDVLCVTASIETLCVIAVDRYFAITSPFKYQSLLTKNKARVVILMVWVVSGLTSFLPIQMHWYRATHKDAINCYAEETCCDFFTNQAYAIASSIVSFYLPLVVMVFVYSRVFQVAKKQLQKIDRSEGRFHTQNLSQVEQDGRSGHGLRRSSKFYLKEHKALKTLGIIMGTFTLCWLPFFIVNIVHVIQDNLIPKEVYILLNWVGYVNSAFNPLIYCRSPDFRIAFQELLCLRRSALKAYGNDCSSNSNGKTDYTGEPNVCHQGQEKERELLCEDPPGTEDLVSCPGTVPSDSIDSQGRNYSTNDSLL
Sequence of Albumin (P02768 whole entry): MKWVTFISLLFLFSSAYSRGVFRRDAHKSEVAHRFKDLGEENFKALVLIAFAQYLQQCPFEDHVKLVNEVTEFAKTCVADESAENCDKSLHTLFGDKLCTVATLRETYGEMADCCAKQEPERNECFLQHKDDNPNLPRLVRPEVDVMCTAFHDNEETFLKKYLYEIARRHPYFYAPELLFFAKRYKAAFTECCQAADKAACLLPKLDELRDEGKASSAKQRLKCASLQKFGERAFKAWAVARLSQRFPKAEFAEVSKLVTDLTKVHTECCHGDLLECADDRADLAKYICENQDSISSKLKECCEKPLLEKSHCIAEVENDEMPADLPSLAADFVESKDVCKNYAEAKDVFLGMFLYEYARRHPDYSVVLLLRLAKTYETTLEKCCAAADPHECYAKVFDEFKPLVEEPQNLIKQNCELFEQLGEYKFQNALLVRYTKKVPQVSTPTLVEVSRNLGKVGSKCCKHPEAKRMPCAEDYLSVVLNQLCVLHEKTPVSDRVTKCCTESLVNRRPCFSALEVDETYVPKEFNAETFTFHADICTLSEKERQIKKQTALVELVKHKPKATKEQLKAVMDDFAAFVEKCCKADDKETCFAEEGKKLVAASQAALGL
T1 sequence (P07550 whole entry): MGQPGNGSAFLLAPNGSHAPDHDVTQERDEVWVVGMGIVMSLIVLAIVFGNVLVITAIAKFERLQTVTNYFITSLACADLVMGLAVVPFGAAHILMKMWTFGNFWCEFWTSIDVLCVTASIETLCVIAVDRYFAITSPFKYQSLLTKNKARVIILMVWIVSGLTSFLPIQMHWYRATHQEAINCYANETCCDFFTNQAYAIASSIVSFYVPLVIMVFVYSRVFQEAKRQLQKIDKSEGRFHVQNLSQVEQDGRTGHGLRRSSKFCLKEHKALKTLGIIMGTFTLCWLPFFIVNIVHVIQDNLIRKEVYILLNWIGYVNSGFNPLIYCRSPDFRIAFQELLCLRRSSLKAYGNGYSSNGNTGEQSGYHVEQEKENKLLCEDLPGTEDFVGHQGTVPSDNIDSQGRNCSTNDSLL

Compound	Activity [1]	CHI [2]	IC50 [3]	EC50 [4]	Ki [5]	microsomal CLint at 1 µM [7]	microsomal CLint at 1 µM [8]	fraction unbound at 3 h [9]	fraction unbound [10]	Time [6]
O=c1ccc2c([C@@H](O)CNC3Cc4ccccc4C3)ccc(O)c2[nH]1	63.8%	38.2	0.83 nM	5 nM	218 nM	–	–	–	–	–
COc1cc2c(cc1OC)CC(NC[C@H](O)c1ccc(O)c3[nH]c(=O)ccc13)C2	59.5%	32.4	2.3 nM	18 nM	342 nM	–	–	–	–	–
CCc1cc2c(cc1CC)CC(NC[C@H](O)c1ccc(O[C@@H]3O[C@H](C(=O)O)[C@@H](O)[C@H](O)[C@H]3O)c3[nH]c(=O)ccc13)C2	–	–	–	–	> 10000 nM	–	–	–	–	–
CC(C)(C)NCC(O)c1ccc(O)c(CO)c1 (centres undefined) [ALBUTEROL]	29.9%	21	–	–	–	–	–	–	–	–
COc1ccc(C[C@@H](C)NC[C@H](O)c2ccc(O)c3[nH]c(=O)ccc23)cc1 [CARMOTEROL]	57.1%	37.7	0.3 nM	0.76 nM	3.19 nM	–	–	–	–	–
OCc1cc(C(O)CNCCCCCCOCCCCc2ccccc2)ccc1O (centres undefined) [SALMETEROL]	91.1%	56.7	–	–	–	–	–	–	–	–

Second part, led by results:

Activity [1]	CHI [2]	IC50 [3]	EC50 [4]	Ki [5]	microsomal CLint at 1 µM [7]	microsomal CLint at 1 µM [8]	fraction unbound at 3 h [9]	fraction unbound [10]	Compound	Time [6]
89.8%	54.9	48 nM	39 nM	522 nM	–	–	–	–	Cc1cc2c(cc1C)CC(NC[C@H](O)c1ccc(O)c3[nH]c(=O)ccc13)C2	–
94%	62.9	75 nM	115 nM	692 nM	–	–	–	–	CCc1ccc(CC)c2c1CC(NC[C@H](O)c1ccc(O)c3[nH]c(=O)ccc13)C2	–
98.6%	> 70	20 nM	14 nM	119 nM	–	–	–	–	CCCc1cc2c(cc1CCC)CC(NC[C@H](O)c1ccc(O)c3[nH]c(=O)ccc13)C2	–
99.5%	> 70	> 1000 nM	25 nM	112 nM	–	–	–	–	CCCCc1cc2c(cc1CCCC)CC(NC[C@H](O)c1ccc(O)c3[nH]c(=O)ccc13)C2	–
95.7%	59.7	–	11 nM	76 nM	378 µL/min/mg	76 µL/min/mg	0.049	0.043	CCc1cc2c(cc1CC)CC(NC[C@H](O)c1ccc(O)c3[nH]c(=O)ccc13)C2 [INDACATEROL]	24 h
